Columns and labels:
[1] = tested on: BAECs; assay: Scratch wound healing assay; format: cell-based, bovine; conditions: 50 ng/ml SDF-1alpha, no inhibitor
Method: For detection of cell migration, a wound healing assay was performed as previously described (40). BAECs were grown on 35 mm wells, the monolayer was scratched with a sterile disposable rubber policeman and the edge labeled with a traced line. After injury, the cells were gently washed with normal media without serum. EC migration from the edge of the injured monolayer was quantified by measuring the area between the wound edges before and the recovered area after injury using light microscopy (Eclipse TS100, 4× objective, Nikon) and the computer program ImageJ.
To determine whether eNOS activation is required for SDF-1α-mediated endothelial cell migration, we performed scratch-wound healing and Boyden chamber migration assays in the presence of the NOS-specific inhibitor L-NMMA (19). Confluent BAECs were pretreated for one hour with 1 mM or 5 mM L-NMMA or vehicle prior to each assay. […] Similarly, cell migration in Boyden chambers was induced by SDF-1α (from 8±3 to 86±5 cells per field), but this increase in migration was inhibited by the pre-incubation of BAECs with L-NMMA (FIG. 1D). The involvement of eNOS in SDF-1α-induced endothelial cell migration was confirmed by treatment of cells with siRNAs specific for eNOS. […]

[2] = tested on: MKP7; assay: Biotin switch assay, MKP7 nitrosylation in BAECs transfected with Flag-MKP7; format: cell-based; conditions: 50 ng/ml SDF-1alpha for 5 minutes
Method: Experiments were performed following the methods previously described by Dr. Stamler's laboratory (39). Cell lysates containing Flag or Myc-tagged MKP7 protein were treated with the indicated concentrations of GSNO followed by the addition of 2 volumes of HEN buffer and freshly prepared S-methyl methanethiosulfonate (10% v/v in N,N-dimethylformamide) and SDS (25% v/v) to final concentrations of 0.1 and 2.5%, respectively. Following frequent vortexing at 50° C. for 1 hour, proteins were precipitated with 3 volumes of acetone at −20° C. for 30 min. The proteins were recovered by centrifugation at 5,000×g for 5 min, followed by gentle rinsing of the pellet with 3×1 ml acetone. The pellets were then resuspended in 240 μl of HEN buffer containing 1% SDS. The resuspended protein was precipitated, rinsed and resuspended once more. For labeling, the blocked samples were mixed with 0.1 volume of biotin-HPDP (2.5 mg/ml in Me2SO) and 0.1 volume of HEN (control) or freshly prepared sodium Ascorbic acid in HEN buffer. […] The eluted mixture was then analyzed by SDS-PAGE, followed by immunoblotting with anti-Flag-HRP (1:5000) or antibodies.
As a first step, we investigated whether SDF-1α treatment of BAECs would result in S-nitrosylation of MKP7. […] Next we used JNK3 phosphorylation as a readout for determining whether or not SDF-1α activation of JNK3 could be inhibited by MKP7. […]

## SDF-1α
[1]
  BAEC migration towards the wounded area: 56.0±12.0%
[2]
  MKP7 nitrosylation in BAECs: increased

Reference: patent US8153589B2, “JNK3 as a target for the treatment of angiogenesis-related diseases” (The University of North Carolina at Chapel Hill, priority 2009, dated 2012)
